Laboratory results as given in patent publication US8258138B2, “Potassium channel blockers” (Xention Limited, priority 2008, dated 2012).

Assays:
human Kv1.3 = target: T1, human Kv1.3 (Homo sapiens, UniProt P22001); assay: Kv1.3 Autopatch electrophysiology (whole cell patch-clamp, inhibition of charge movement); format: cell-based; settings: compound at 1 μM; cells stably transfected with human Kv1.3; room temperature; total charge during step to +30 mV relative to control; read-out: hKv1.3 % inh.
T1 construct: expressed in transfected cells; host or cells: stably transfected cells grown in medium for CHO cells
Method in brief: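 Whole-cell AutoPatch recordings were made at room temperature from cells held at −80 mV, with 500 ms steps to +30 mV every 15 s. The bath contained 10 mM KCl, pH 7.4, and the pipette K-gluconate/EGTA, pH 7.2.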

hKv1.5 = hKv1.5 (Homo sapiens, UniProt P22460); assay: Kv1.5 Autopatch electrophysiology (whole cell patch-clamp); format: cell-based; settings: compound at 1 μM; room temperature (22-24° C.); total charge during step to 0 mV; read-out: hKv1.5 % inh.
Description: Kv1.5 Autopatch Electrophysiology Method
The external bathing solution contained (in mM): 150 NaCl, 10 KCl, […], 3 MgCl2, 1 CaCl2, 10 HEPES, pH 7.4. Patch pipettes were filled with an electrode solution of composition (in mM): 160 KCl, 0.5 MgCl2, 10 HEPES, 1 EGTA, pH 7.4 with KOH.
Compounds were dissolved in DMSO (100%) and made up in the external bather at a concentration of 1 μM. All experiments were conducted at room temperature (22-24° C.).
A cell suspension (10 ml), with a density of 100,000 cells/ml, was aliquoted into a 15 ml centrifuge tube and transferred to an incubator (37° C., 5% CO2) for approximately one hour before use. Following 60 min incubation, a tube was taken and centrifuged at 1000 rpm for 4 mins at room temperature. 9.5 ml supernatant was thence discarded, leaving a cell pellet at the bottom of the tube. The pellet was then resuspended using 100 μl of cold (4° C.), filtered (0.22 μm), 0.2% BSA/bather solution (0.02 g BSA/10 ml bather). The bottom of the tube was manually agitated gently until the solution became cloudy with cells. The 100 μl cell resuspension solution was then stored on the bench at 4° C. (using a Peltier-based temperature control device) until used.
A length of capillary glass (1B150F-4, WPI) was dipped into the cell suspension solution, such that ˜3 cm column of fluid was taken up by capillary action. A Ag/AgCl wire was dropped into the non-dipped end of the capillary also. The outside of the solution-filled end of the capillary was then dried and the capillary was loaded into the AutoPatch™.
Borosilicate glass patch pipettes (from 1.5 mm OD, thin-walled filamented, GC150-TF capillary glass, Harvard) were pulled using a DMZ pipette puller (Zeitz Instruments), and were back-filled using the internal pipette solution, being careful that no bubbles remain at the tip or in the body of the pipette. Patch pipettes typically had resistances of 2.3-3.5 MΩ. Once filled, the pipette tip and a proportion of the shaft (˜15 mm) were dipped into Sigmacote (Sigma). The recording pipette was then loaded into the AutoPatch™ Automated patch-clamping was initiated by the operator, but thereafter AutoPatch.exe continued the experiment providing that pre-set conditions and criteria were satisfied.
Whole cell patch-clamp recordings were made using the AutoPatch™ rig, which incorporated an EPC9 amplifier (HEKA, Germany) under control of Pulse software (v8.54, HEKA, Germany), a motion controller with 2 translators (Newport, UK), valve controller (VF1) and a c-level suction device all at room temperature (22-24° C.). This equipment was completely under the control of AutoPatch.exe and operator intervention was only made when there was a requirement to refill the drug reservoirs or to prevent the loss of a cell due to a technical error. Cells with an Rseries greater than 18 MΩ were discounted from the experiment.
Qualification stages prior to perfusion and drug application ensured that the observed current met the criteria for the experiment. Only those cells with an IK>500 pA were used for experiments. Cells were continuously perfused with external solution at a flow rate of 1.8-2 ml/minute. […] Online analysis of the hKv1.5 current during the application of compounds was performed by the AutoPatch™ software. Voltage-step protocols and analysis of data was performed as described for conventional electrophysiology.
Electrophysiology voltage-step protocols and analysis of data was performed as follows. Data was sampled at 5 kHz, and filtered with a −3 dB bandwidth of 2.5 kHz. Cells were held at a voltage of −80 mV. Currents were evoked to a voltage step for 1000 ms in duration at 0 mV every 5 s. Currents were analysed using Pulsefit software (v8.54, HEKA, Germany), with the total charge measured during the whole of the voltage step. All other plots were produced using Igor Pro (WaveMetrics).

Chain of hKv1.5 (P22460 whole entry): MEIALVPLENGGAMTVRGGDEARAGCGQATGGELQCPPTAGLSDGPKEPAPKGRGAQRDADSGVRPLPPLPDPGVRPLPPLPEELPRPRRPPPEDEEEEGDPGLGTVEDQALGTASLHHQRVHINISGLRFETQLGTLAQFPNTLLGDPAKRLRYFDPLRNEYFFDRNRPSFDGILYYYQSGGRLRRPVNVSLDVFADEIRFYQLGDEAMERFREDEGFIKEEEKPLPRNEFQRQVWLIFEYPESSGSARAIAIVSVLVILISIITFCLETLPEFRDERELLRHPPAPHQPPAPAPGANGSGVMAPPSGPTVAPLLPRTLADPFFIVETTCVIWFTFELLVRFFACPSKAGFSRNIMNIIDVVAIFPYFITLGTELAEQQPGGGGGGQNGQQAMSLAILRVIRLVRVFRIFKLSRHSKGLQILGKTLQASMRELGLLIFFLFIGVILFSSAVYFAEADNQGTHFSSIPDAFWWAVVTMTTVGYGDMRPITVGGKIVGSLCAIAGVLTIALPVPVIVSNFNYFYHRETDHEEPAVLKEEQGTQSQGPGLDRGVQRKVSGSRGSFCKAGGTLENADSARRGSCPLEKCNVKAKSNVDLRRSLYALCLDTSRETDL
T1 sequence (P22001 whole entry): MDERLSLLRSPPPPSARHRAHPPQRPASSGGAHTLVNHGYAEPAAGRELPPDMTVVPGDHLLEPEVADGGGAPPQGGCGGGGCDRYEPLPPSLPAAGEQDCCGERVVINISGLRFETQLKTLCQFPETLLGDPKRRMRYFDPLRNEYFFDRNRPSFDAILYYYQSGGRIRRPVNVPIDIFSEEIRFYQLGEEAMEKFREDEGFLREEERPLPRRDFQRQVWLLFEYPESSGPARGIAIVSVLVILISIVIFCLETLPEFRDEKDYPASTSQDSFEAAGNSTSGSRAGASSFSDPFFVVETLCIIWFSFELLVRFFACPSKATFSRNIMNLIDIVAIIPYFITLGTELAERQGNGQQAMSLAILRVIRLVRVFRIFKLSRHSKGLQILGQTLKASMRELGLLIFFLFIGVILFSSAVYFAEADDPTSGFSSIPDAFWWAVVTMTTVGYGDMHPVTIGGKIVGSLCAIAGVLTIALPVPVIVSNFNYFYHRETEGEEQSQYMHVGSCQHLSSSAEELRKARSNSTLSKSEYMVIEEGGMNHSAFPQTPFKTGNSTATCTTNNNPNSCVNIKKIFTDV

| inhibition at 1 µM (human Kv1.3) [%] | inhibition at 1 µM (hKv1.5) [%] | SMILES |
| --- | --- | --- |
| 62 | 56 | O=C(c1ccc(N(Cc2ccc(Cl)cc2)S(=O)(=O)c2cccnc2)cc1)N1CCCCC1 [Example 87, Pyridine-3-sulfonic acid (4-chloro-benzyl)-[4-(piperidine-1-carbonyl)-phenyl]-amide] |
| 76 | 40.8 | CN1CCN(C(=O)c2ccc(N(Cc3ccccc3)S(=O)(=O)c3ccn(C)n3)cc2)CC1c1ccccc1 (stereo not shown) [Example 90, 1-Methyl-1H-pyrazole-3-sulfonic acid benzyl-[4-(4-methyl-3-phenyl-piperazine-1-carbonyl)-phenyl]-amide] |
| 56 | 68.9 | Cc1ccc(CN(c2ccc(C(=O)N3CCN(c4ccccc4)CC3)cc2)S(=O)(=O)c2ccccc2)cc1 [Example 35, N-(4-Methyl-benzyl)-N-[4-(4-phenyl-piperazine-1-carbonyl)-phenyl]-benzenesulfonamide] |
| 78 | 46.4 | Cc1ccc(CN(c2ccc(C(=O)N3CCN(c4ccccc4)CC3)cc2)S(=O)(=O)c2cn(C)cn2)cc1 [Example 43, 1-Methyl-1H-imidazole-4-sulfonic acid (4-methyl-benzyl)-[4-(4-phenyl-piperazine-1-carbonyl)-phenyl]-amide] |
| 76 | 50 | Cc1cc(C(=O)N2CCN(c3ccccc3)CC2)ccc1N(Cc1ccccc1)S(=O)(=O)c1cn(C)cn1 [Example 49, 1-Methyl-1H-imidazole-4-sulfonic acid benzyl-[2-methyl-4-(4-phenyl-piperazine-1-carbonyl)-phenyl]-amide] |
| 82 | 88.8 | O=C(c1ccc(N(Cc2ccccc2)S(=O)(=O)c2ccccc2F)cc1)N1CCN(c2ccccc2)CC1 [Example 20, N-Benzyl-2-fluoro-N-[4-(4-phenyl-piperazine-1-carbonyl)-phenyl]-benzenesulfonamide] |
| 74 | 81.2 | COc1cccc(S(=O)(=O)N(Cc2ccccc2)c2ccc(C(=O)N3CCN(c4ccccc4)CC3)cc2)c1 [Example 28, N-Benzyl-3-methoxy-N-[4-(4-phenyl-piperazine-1-carbonyl)-phenyl]-benzenesulfonamide] |
| 66 | 80.4 | O=C(c1ccc(N(Cc2ccccc2)S(=O)(=O)c2ccc3c(c2)OCCO3)cc1)N1CCN(c2ccccc2)CC1 [Example 15, 2,3-Dihydro-benzo[1,4]dioxine-6-sulfonic acid benzyl-[4-(4-phenyl-piperazine-1-carbonyl)-phenyl]-amide] |
| 76 | 66.4 | CCc1ccc(S(=O)(=O)N(Cc2ccccc2)c2ccc(C(=O)N3CCN(c4ccccc4)CC3)cc2)cc1 [Example 42, N-Benzyl-4-ethyl-N-[4-(4-phenyl-piperazine-1-carbonyl)-phenyl]-benzenesulfonamide] |
| 34 | 47.3 | O=C(c1ccc(N(Cc2ccccc2)S(=O)(=O)c2cccs2)cc1)N1CCN(c2ccccc2)CC1 [Example 17, Thiophene-2-sulfonic acid benzyl-[4-(4-phenyl-piperazine-1-carbonyl)-phenyl]-amide] |
| 76 | 43.6 | Cn1cnc(S(=O)(=O)N(Cc2cccc(F)c2)c2ccc(C(=O)N3CCN(c4ccccc4)CC3)cc2)c1 [Example 44, 1-Methyl-1H-imidazole-4-sulfonic acid (3-fluoro-benzyl)-[4-(4-phenyl-piperazine-1-carbonyl)-phenyl]-amide] |
| 62 | 62.4 | O=C(c1ccc(N(Cc2ccccc2)S(=O)(=O)c2ccc([N+](=O)[O-])cc2)cc1)N1CCN(c2ccccc2)CC1 [Example 40, N-Benzyl-4-nitro-N-[4-(4-phenyl-piperazine-1-carbonyl)-phenyl]-benzenesulfonamide] |
| 93 | 74.4 | Cn1cnc(S(=O)(=O)N(Cc2ccccc2)c2ccc(C(=O)N3CCOC(c4ccccc4)C3)cc2)c1 (stereo not shown) [Example 63, 1-Methyl-1H-imidazole-4-sulfonic acid benzyl-[4-(2-phenyl-morpholine-4-carbonyl)-phenyl]-amide] |
| 84 | 71.9 | N#Cc1ccccc1S(=O)(=O)N(Cc1ccccc1)c1ccc(C(=O)N2CCN(c3ccccc3)CC2)cc1 [Example 24, N-Benzyl-2-cyano-N-[4-(4-phenyl-piperazine-1-carbonyl)-phenyl]-benzenesulfonamide] |
| 79 | 93.1 | N#Cc1cccc(S(=O)(=O)N(Cc2ccccc2)c2ccc(C(=O)N3CCN(c4ccccc4)CC3)cc2)c1 [Example 23, N-Benzyl-3-cyano-N-[4-(4-phenyl-piperazine-1-carbonyl)-phenyl]-benzenesulfonamide] |
| 80 | 82.9 | O=C(c1ccc(N(Cc2ccccc2)S(=O)(=O)c2ccsc2)cc1)N1CCN(c2ccccc2)CC1 [Example 18, Thiophene-3-sulfonic acid benzyl-[4-(4-phenyl-piperazine-1-carbonyl)-phenyl]-amide] |
| 42 | 57.5 | COc1cccc(CN(c2ccc(C(=O)N3CCN(c4ccccc4)CC3)cc2)S(=O)(=O)c2ccccc2)c1OC [Example 51, N-(2,3-Dimethoxy-benzyl)-N-[4-(4-phenyl-piperazine-1-carbonyl)-phenyl]-benzenesulfonamide] |
| 90 | 56.7 | Cn1cnc(S(=O)(=O)N(Cc2ccccc2)c2ccc(CN3CCN(c4ccccc4)CC3)cc2)c1 [Example 8, 1-Methyl-1H-imidazole-4-sulfonic acid benzyl-[4-(4-phenyl-piperazin-1-ylmethyl)-phenyl]-amide] |
| 69 | 56.8 | Cn1cnc(S(=O)(=O)N(Cc2ccccc2)c2ccc(C(=O)N3CCN(c4ccccc4)CC3)cc2F)c1 [Example 50, 1-Methyl-1H-imidazole-4-sulfonic acid benzyl-[2-fluoro-4-(4-phenyl-piperazine-1-carbonyl)-phenyl]-amide] |
| 90 | 62.8 | Cn1cnc(S(=O)(=O)N(Cc2ccccc2)c2ccc(C(=O)N3CCOC(c4ccccc4)C3)cc2F)c1 (stereo not shown) [Example 68, 1-Methyl-1H-imidazole-4-sulfonic acid benzyl-[2-fluoro-4-(2-phenyl-morpholine-4-carbonyl)-phenyl]-amide] |
| 82 | 85.5 | Cc1ccccc1S(=O)(=O)N(Cc1ccccc1)c1ccc(C(=O)N2CCN(c3ccccc3)CC2)cc1 [Example 26, N-Benzyl-2-methyl-N-[4-(4-phenyl-piperazine-1-carbonyl)-phenyl]-benzenesulfonamide] |
| 47 | 45.2 | COc1ccc(C2CCCN(C(=O)c3ccc(N(Cc4ccc(Cl)cc4)S(=O)(=O)c4ccccc4)cc3)C2)cc1 (stereo not shown) [Example 57, N-(4-Chloro-benzyl)-N-{4-[3-(4-methoxy-phenyl)-piperidine-1-carbonyl]-phenyl}-benzenesulfonamide] |
| 67 | 61.6 | O=C(c1ccc(N(Cc2cccc(F)c2)S(=O)(=O)c2ccccc2)cc1)N1CCN(c2ccccc2)CC1 [Example 31, N-(3-Fluoro-benzyl)-N-[4-(4-phenyl-piperazine-1-carbonyl)-phenyl]-benzenesulfonamide] |
